Values of other authors, collected in US10927113B2, “Process for preparing purine derivatives” (Cyclacel Limited, priority 2017, dated 2021).

Assays:
[1] = test system: CDK; conditions: background statement referring to WO 2008/122767
[2] = test system: a range of different cell lines; conditions: background statement

CC[C@H](Nc1nc(NCc2cnc(C)cc2C)c2ncn(C(C)C)c2n1)[C@@H](C)O [Compound [1]]
CDK inhibitory activity [1]: potent CDK inhibitory activity | potency in cellular toxicity studies [2]: surprisingly high potency
